For 104 compounds, Kd results are on record in PubChem BioAssay AID1549 (Sanford-Burnham Center for Chemical Genomics, 2009).

The source made the active and inactive calls. No rule for the calls is given here. Where only a bound is given, the exact number is not on record here.

In this test the target is Influenza A virus M2 proton channel (A/TW/4845/1999 H1N1). Description: M2 proton channel binding, NMR based, influenza A virus H1N1 strain (AID 1549). The settings on record: NMR binding screen, M2 protein.
Regarding `O=C(Oc1ccc(-c2nnco2)cc1)N1CCCCC1`, the Kd – broadly, the equilibrium constant for the complex coming apart – is > 4 mM (inactive).

For the compound `Cn1[nH]c2nc3[nH]n(C)c(=O)c3c(-c3ccccc3)c2c1=O`, the Kd was > 4 mM (inactive).

For the compound `Cc1ncoc1C(=O)Nc1ccccc1C(N)=O`, the Kd is > 4 mM (inactive).

As to `OCc1csc(-c2cccs2)n1`, the Kd is > 4 mM (inactive).

For the compound `CN1CCC(NC(=O)c2ccccc2[N+](=O)[O-])CC1`, the Kd is > 4 mM (inactive).

In the case of `OCn1nnn(-c2ccccc2)c1=S`, the Kd is > 4 mM (inactive).

With `Cc1ccc(CCNc2ccccc2)c[n+]1[O-]`, the Kd is > 4 mM (inactive).

In the case of `COc1ccc(-c2cc(=O)c3c(O)cc(O)c(-c4cc(-c5cc(=O)c6c(O)cc(O)cc6o5)ccc4OC)c3o2)cc1`, the Kd was > 4 mM (inactive).

In the case of `O=C(O)/C=C(\CC(=O)O)C(=O)O`, the Kd is > 4 mM (inactive).

With `Cc1ccc(N2C(=O)CCC2=O)cc1`, the Kd is > 4 mM (inactive).

In the case of `COc1cc2c(cc1OC)C1(O)C(=O)c3ccc(O)c(C(=O)O)c3OC1CO2` (centres undefined), the Kd was > 4 mM (inactive).

`Nc1cccc(NC(=O)c2ccco2)c1`: the Kd was > 4 mM (inactive).

As to `C[C@@H]1C(=O)OC2[C@H](O)C34[C@@H]5OC(=O)[C@@]3(O[C@@H]3OC(=O)[C@H](O)[C@@]34[C@H](C(C)(C)C)[C@H]5O)[C@]21O` (some centres undefined), the Kd was > 4 mM (inactive).

For `O=C(NC(=S)NCCO)c1ccccc1`, the Kd is > 4 mM (inactive).

Regarding `c1cc(C(N2CCOCC2)N2CCOCC2)ccn1`, the Kd was > 4 mM (inactive).

For the compound `O=C(Cc1cccs1)N1CCOCC1`, the Kd is > 4 mM (inactive).

In the case of `Nc1nc(-c2ccc(Cl)cc2)nn1C(=O)c1cccnc1`, the Kd is > 4 mM (inactive).

With `S=C=NCc1ccccc1`, the Kd was > 4 mM (inactive).

Consider `Cc1c(N=Cc2ccc[nH]2)c(=O)n(-c2ccccc2)n1C`, for which the Kd was > 4 mM (inactive).

As for `O=CN1CCN(C2CC(=O)N(c3ccccc3)C2=O)CC1` (centres undefined), the Kd was > 4 mM (inactive).

Take `Cc1ccc(C)n1NC(=O)c1ccco1`: the Kd was > 4 mM (inactive).

For `Oc1ccc2c(c1)OCO2`, the Kd was > 4 mM (inactive).

`COc1cccc(/C=C2/SC(N)=NC2=O)c1`: the Kd is > 4 mM (inactive).

Turning to `CC(=O)Oc1cc(OC(C)=O)c2c(c1)O[C@H](c1ccc(OC(C)=O)c(OC(C)=O)c1)[C@H](OC(C)=O)C2`, the Kd is > 4 mM (inactive).

`COC(=O)c1cccs1`: the Kd is > 4 mM (inactive).

In the case of `COC(=O)c1c(SC)nc(-c2ccccc2)[nH]c1=O`, the Kd is > 4 mM (inactive).

As to `O=C(c1ccncc1)N1CCN(C(=O)c2ccco2)CC1`, the Kd was > 4 mM (inactive).

For `O=c1c[n+]([O-])c2ccccc2n1OCc1ccccc1`, the Kd was > 4 mM (inactive).

With `Cc1ccccc1NC(=O)CC1NCCNC1=O` (centres undefined), the Kd was > 4 mM (inactive).

For the compound `CC(C)(C#N)O[C@@H]1O[C@H](CO)[C@@H](O)[C@H](O)[C@H]1O`, the Kd is > 4 mM (inactive).

`Cc1ccc(CN2C3=NC(=O)CN3c3ccccc32)cc1`: the Kd is > 4 mM (inactive).

Regarding `COn1c(=O)c(-c2ccco2)[n+]([O-])c2ccccc21`, the Kd was > 4 mM (inactive).

In the case of `CCOC(=O)c1cnn2ccccc12`, the Kd is > 4 mM (inactive).

On to `O=NN1C(=O)c2ccccc2C1=O`, for which the Kd is > 4 mM (inactive).

With `Cn1c(=O)[nH]c2nc[nH]c2c1=O`, the Kd was > 4 mM (inactive).

Take `CN(C)C(=O)CSc1nc2ccccc2c(=O)[nH]1`: the Kd is > 4 mM (inactive).

Regarding `O=C(Nc1ccccc1)N1CCOCC1`, the Kd is > 4 mM (inactive).

Regarding `C=C(C)CSc1nc2nc(C)cc(C)n2n1`, the Kd is > 4 mM (inactive).

For the compound `O=c1ccc2nc3ccccc3c(=O)n2[nH]1`, the Kd was > 4 mM (inactive).

Consider `CCCCCC(=O)Cc1cc(O)cc(O)c1C(=O)Oc1cc(CC(=O)CCCCC)c(C(=O)O)c(OC)c1`, for which the Kd was > 4 mM (inactive).

As to `CN(C)CCCN1CNC(=S)NC1`, the Kd was > 4 mM (inactive).

Take `Cc1nc(N)sc1C(=O)Nc1nccs1`: the Kd was > 4 mM (inactive).

With `COc1c2ccoc2nc2c(OC)c(OCC(O)C(C)(C)O)ccc12` (centres undefined), the Kd was > 4 mM (inactive).

As to `COc1cc(C(=O)O[C@H]2CC[C@@]3(C)[C@@H]4CC[C@H]5[C@]6(O)C[C@H](O)[C@@]7(O)[C@@H](CN8C[C@@H](C)CC[C@H]8[C@@]7(C)O)[C@]6(O)C[C@@]53OC24O)cc(OC)c1OC`, the Kd is > 4 mM (inactive).

With `O=C(O)CCC(=O)NCc1cccnc1`, the Kd was > 4 mM (inactive).

Take `CCOC(=O)c1c(C)n([O-])c2ccccc2[n+]1=O`: the Kd is > 4 mM (inactive).

For `COC(=O)c1cc2ccccc2cn1`, the Kd is > 4 mM (inactive).

Turning to `Cn1nnc2cc(C(=O)NCc3ccco3)ccc21`, the Kd was > 4 mM (inactive).

With `O=C1CN(c2ccccc2)CC(=O)N1`, the Kd is > 4 mM (inactive).

Regarding `COc1ccccc1NC(=O)NC(N)=O`, the Kd was > 4 mM (inactive).

Turning to `NCc1ccc2c(c1)OCCO2`, the Kd is > 4 mM (inactive).

For `Cc1c(CO)cnn1-c1ccc(F)cc1`, the Kd was > 4 mM (inactive).

For the compound `COc1ccc(C(O)c2nccn2C)cc1` (centres undefined), the Kd was > 4 mM (inactive).

As for `Cn1c(CO)nc2ccccc21`, the Kd was > 4 mM (inactive).

Turning to `CC1=NNC(=O)C1CCc1ccncc1` (centres undefined), the Kd was > 4 mM (inactive).

With `CCCNC(=O)c1cnc2n(c1=O)CCS2`, the Kd was > 4 mM (inactive).

For `c1ccc(SCc2nc(-c3cccnc3)no2)cc1`, the Kd is > 4 mM (inactive).

Consider `Cc1oc(-c2ccccc2)cc1C(=O)O`, for which the Kd is > 4 mM (inactive).

For `Nc1ncnc(NCCO)c1[N+](=O)[O-]`, the Kd was > 4 mM (inactive).

In the case of `COc1cc(O)c(C(C)=O)c(OC)c1`, the Kd is > 4 mM (inactive).

`CC1(C)Oc2ccc3ccc(=O)oc3c2CC1O` (centres undefined): the Kd is > 4 mM (inactive).

For `CCN1CCc2c(sc(N)c2C#N)C1`, the Kd was > 4 mM (inactive).

On to `N#Cc1nc(-c2ccccc2Cl)oc1N1CCOCC1`, for which the Kd is > 4 mM (inactive).

`Cc1ccc(=O)[nH]c1`: the Kd is > 4 mM (inactive).

`O=C(Nc1cccc(O)c1)c1ccccc1`: the Kd is > 4 mM (inactive).

In the case of `CS(=O)(=O)N1CCN(C(=O)c2ccccc2F)CC1`, the Kd is > 4 mM (inactive).

With `NC(=O)Cc1nc2ccccc2[nH]1`, the Kd is > 4 mM (inactive).

In the case of `c1ccc(C[N+]23CCN(CC2)CC3)cc1`, the Kd is > 4 mM (inactive).

With `O=c1[nH]c2c(c(=O)n1C1CCCCC1)CCC2`, the Kd is > 4 mM (inactive).

In the case of `O=C(c1cc(Cl)cc(Cl)c1)N1CCOCC1`, the Kd was > 4 mM (inactive).

Turning to `COc1ccc(-c2noc(-c3ccco3)n2)cc1OC`, the Kd is > 4 mM (inactive).

Take `Cc1cc(=O)cc(C)n1-c1ccccc1N1CCOCC1`: the Kd is > 4 mM (inactive).

`c1ccc(-n2nnnc2Oc2cccc3cccnc23)cc1`: the Kd was > 4 mM (inactive).

On to `NC(=O)c1ccc2c(c1)OCO2`, for which the Kd is > 4 mM (inactive).

For `CCC1C(=O)OCC1Cc1cncn1C` (centres undefined), the Kd is > 4 mM (inactive).

As to `COc1cc(S(=O)(=O)N(C)C)ccc1F`, the Kd is > 4 mM (inactive).

For `O=C(/C=C/C=C/c1ccc2c(c1)OCO2)N1CCCCC1`, the Kd was > 4 mM (inactive).

As for `CN(C)c1ccc(NC(=O)CC(C(=O)O)N(C)C)cc1` (centres undefined), the Kd is > 4 mM (inactive).

Turning to `Cc1cccc(CSc2nncc(=O)[nH]2)c1`, the Kd is > 4 mM (inactive).

With `O=C(O)c1sccc1-n1cccc1`, the Kd was > 4 mM (inactive).

For the compound `c1ccn(Cc2ccncc2)c1`, the Kd is > 4 mM (inactive).

For `CC1(C)CC(=O)c2sc(N)nc2C1`, the Kd is > 4 mM (inactive).

Turning to `CC(=O)O[C@H]1C[C@@H](OC(C)=O)C(C)(C)C2CC(=O)[C@]3(C)C(CC[C@@]4(C)[C@H](c5ccoc5)OC(=O)[C@H]5O[C@]543)[C@]21C` (some centres undefined), the Kd was > 4 mM (inactive).

Regarding `NC(=O)c1ccccc1NC(=O)C1CCCO1` (centres undefined), the Kd is > 4 mM (inactive).

On to `N#Cc1cc2ccccc2nc1N`, for which the Kd is > 4 mM (inactive).

As for `CC(C)C(=O)NCC(c1ccco1)N1CCOCC1` (centres undefined), the Kd was > 4 mM (inactive).

In the case of `COC(=O)C1=C(C)N(Cc2ccco2)C(=O)C1`, the Kd is > 4 mM (inactive).

Consider `Cc1n[nH]c(=S)n(/N=C/c2ccccc2)c1=O`, for which the Kd is > 4 mM (inactive).

`O=C1NNC(=O)C2C3c4ccccc4C(c4ccccc43)C12` (centres undefined): the Kd was > 4 mM (inactive).

In the case of `Cc1nc2ccccc2c(=O)n1NC(=O)C1CCCCC1`, the Kd is > 4 mM (inactive).

Turning to `COc1ccc(O)c(-c2cn[nH]c2-c2cccs2)c1`, the Kd is > 4 mM (inactive).

Take `NC1=NN(c2ccccc2)C(=O)C1`: the Kd is > 4 mM (inactive).

Turning to `COC(=O)c1sc(N)nc1C`, the Kd was > 4 mM (inactive).

Turning to `O=C1CCC([N+](=O)[O-])C(c2ccccc2F)N1` (centres undefined), the Kd was > 4 mM (inactive).

As for `CC(=O)Nc1cnn(Cc2ccc(Br)cc2)c1`, the Kd is > 4 mM (inactive).

For `N=c1c2c3c(sc2ncn1N)CCCC3`, the Kd is > 4 mM (inactive).

Turning to `O=c1cc(-c2ccc(O)cc2)[nH]c(=S)[nH]1`, the Kd is > 4 mM (inactive).

In the case of `Cc1sc2nc(-c3ccco3)oc(=O)c2c1C`, the Kd is > 4 mM (inactive).

Take `O=c1c(O)c(-c2ccccc2)oc2ccccc12`: the Kd is > 4 mM (inactive).

As for `Oc1ccc(C2SCCS2)cc1`, the Kd is > 4 mM (inactive).

In the case of `O=S1(=O)CCC(NC(=S)Nc2ccc(O)cc2)C1` (centres undefined), the Kd was > 4 mM (inactive).

With `NC(=O)c1oc2ccccc2c1N`, the Kd is > 4 mM (inactive).

Regarding `CN1CCC(N(C)Cc2cccnc2)CC1`, the Kd was > 4 mM (inactive).

Take `C[n+]1ccn(C/C(N)=N/O)c1`: the Kd was > 4 mM (inactive).
